Data on five molecules can be found in paper doi:10.1101/2023.03.24.534094v2 (biorxiv, 2023).

The structures appear in SMILES notation. Where two headings read alike, the source gives them in different places.

Targets include AKT3 (Homo sapiens, UniProt Q9Y243); CHK2 (Homo sapiens, UniProt O96017); EpHA5 (Homo sapiens, UniProt P54756); MSK1b (Homo sapiens, UniProt O75582); PIM3 (Homo sapiens, UniProt Q86V86); SRPK1 (Homo sapiens, UniProt Q96SB4); TAF1 (Homo sapiens, UniProt P21675); p38a (Homo sapiens, UniProt Q16539).
Assay in all cases: biochemical
The target of a further assay is T1, BMX (Homo sapiens, UniProt P51813).
T1 sequence (P51813 1-675): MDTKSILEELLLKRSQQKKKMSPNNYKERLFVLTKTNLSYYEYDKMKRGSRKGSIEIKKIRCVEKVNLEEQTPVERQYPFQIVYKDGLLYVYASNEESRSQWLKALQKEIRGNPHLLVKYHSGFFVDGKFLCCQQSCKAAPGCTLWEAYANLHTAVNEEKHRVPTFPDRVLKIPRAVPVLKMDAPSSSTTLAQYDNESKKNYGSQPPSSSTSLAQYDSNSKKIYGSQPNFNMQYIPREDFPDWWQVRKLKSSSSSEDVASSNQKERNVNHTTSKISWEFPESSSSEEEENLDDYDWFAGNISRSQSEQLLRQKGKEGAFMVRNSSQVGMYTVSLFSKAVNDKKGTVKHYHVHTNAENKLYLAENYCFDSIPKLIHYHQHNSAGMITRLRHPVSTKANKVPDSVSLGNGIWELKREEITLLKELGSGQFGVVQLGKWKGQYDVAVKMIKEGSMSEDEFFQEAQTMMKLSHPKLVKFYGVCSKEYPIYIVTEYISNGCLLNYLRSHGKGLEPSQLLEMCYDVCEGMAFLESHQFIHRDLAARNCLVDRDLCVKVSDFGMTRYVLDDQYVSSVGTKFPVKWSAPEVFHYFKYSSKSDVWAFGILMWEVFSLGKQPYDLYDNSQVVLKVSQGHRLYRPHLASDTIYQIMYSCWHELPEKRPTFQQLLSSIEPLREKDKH

In another assay the target is T2, Erk7 (Homo sapiens, UniProt Q8TD08).
T2 sequence (Q8TD08 1-544): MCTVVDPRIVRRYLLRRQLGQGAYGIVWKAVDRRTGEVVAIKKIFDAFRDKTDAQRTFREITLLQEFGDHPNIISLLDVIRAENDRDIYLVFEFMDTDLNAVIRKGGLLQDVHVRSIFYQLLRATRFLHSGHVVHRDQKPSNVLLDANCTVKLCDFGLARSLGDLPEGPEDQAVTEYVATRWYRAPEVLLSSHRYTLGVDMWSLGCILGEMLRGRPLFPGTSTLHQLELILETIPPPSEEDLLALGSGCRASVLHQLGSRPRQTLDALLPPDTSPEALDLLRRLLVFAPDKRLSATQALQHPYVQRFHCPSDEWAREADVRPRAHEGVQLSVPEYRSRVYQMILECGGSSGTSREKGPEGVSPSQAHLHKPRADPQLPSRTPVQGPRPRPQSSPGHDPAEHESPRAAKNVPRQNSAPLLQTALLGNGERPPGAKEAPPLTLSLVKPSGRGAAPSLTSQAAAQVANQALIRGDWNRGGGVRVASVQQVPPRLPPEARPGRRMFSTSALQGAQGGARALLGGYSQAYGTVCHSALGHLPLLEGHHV

The target in the next assay is T3, MAP2K6 (Homo sapiens, UniProt P52564).
T3 sequence (P52564 1-334): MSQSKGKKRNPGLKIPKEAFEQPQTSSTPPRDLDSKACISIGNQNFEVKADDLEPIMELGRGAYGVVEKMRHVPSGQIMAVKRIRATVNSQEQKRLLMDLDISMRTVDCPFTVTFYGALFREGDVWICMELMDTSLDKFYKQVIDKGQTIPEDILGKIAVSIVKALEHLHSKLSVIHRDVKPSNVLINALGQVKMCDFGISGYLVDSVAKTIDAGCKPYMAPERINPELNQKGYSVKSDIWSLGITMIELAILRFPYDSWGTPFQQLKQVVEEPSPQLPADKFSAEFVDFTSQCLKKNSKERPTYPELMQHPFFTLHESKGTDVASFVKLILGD

The target of a further assay is T4, NEK2 (Homo sapiens, UniProt P51955).
T4 sequence (P51955 1-445): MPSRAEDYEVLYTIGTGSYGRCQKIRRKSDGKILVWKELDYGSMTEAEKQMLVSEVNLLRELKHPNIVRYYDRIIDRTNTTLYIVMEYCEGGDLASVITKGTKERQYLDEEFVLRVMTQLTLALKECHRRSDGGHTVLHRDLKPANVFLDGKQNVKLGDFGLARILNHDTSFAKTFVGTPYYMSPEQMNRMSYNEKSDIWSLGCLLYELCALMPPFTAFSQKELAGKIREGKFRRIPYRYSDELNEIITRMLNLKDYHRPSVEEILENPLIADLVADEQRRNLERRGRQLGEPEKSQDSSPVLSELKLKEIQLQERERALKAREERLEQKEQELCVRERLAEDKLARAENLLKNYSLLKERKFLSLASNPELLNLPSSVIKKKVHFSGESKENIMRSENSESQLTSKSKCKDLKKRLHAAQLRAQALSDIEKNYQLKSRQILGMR

CHK2, sequence (O96017 whole entry): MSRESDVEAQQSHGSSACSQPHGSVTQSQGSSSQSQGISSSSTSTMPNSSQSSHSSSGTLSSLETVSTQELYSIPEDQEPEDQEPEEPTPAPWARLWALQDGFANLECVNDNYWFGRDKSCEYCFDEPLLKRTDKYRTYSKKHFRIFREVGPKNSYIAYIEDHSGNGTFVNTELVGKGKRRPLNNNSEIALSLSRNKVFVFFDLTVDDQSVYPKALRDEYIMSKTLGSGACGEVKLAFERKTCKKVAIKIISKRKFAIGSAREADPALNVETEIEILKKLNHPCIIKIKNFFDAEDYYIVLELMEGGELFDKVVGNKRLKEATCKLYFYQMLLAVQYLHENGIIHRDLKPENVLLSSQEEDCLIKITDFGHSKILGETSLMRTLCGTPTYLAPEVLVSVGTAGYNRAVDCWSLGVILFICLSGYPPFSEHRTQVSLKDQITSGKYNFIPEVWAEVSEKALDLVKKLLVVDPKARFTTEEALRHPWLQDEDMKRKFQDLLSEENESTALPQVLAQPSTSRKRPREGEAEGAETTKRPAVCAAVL
EpHA5, sequence (P54756 whole entry): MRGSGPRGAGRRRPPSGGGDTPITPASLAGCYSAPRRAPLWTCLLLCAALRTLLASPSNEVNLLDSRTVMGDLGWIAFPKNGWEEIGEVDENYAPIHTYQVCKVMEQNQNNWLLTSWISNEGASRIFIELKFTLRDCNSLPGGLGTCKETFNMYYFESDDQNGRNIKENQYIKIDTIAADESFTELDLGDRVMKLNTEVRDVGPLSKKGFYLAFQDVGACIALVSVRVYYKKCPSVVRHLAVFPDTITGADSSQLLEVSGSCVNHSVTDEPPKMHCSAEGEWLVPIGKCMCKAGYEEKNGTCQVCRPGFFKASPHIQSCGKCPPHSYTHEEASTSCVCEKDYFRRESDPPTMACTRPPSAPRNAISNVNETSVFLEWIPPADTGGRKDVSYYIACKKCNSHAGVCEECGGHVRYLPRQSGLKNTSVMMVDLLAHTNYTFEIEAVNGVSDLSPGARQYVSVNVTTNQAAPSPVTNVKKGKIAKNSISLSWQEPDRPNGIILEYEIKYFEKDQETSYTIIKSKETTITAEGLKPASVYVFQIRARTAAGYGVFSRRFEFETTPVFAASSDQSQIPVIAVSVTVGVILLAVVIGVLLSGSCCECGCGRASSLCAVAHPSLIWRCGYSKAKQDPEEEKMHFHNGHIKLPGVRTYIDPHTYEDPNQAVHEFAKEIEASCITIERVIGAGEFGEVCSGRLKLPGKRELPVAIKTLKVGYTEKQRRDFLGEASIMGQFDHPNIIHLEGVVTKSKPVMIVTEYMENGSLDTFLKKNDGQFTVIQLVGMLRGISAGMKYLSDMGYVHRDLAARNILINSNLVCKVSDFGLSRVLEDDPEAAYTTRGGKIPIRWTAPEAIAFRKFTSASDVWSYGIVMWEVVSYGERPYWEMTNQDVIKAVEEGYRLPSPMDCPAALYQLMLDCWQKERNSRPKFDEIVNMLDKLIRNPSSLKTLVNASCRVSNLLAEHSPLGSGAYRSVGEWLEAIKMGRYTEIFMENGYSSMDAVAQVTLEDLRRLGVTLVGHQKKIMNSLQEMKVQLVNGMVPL
MSK1b, sequence (O75582 whole entry): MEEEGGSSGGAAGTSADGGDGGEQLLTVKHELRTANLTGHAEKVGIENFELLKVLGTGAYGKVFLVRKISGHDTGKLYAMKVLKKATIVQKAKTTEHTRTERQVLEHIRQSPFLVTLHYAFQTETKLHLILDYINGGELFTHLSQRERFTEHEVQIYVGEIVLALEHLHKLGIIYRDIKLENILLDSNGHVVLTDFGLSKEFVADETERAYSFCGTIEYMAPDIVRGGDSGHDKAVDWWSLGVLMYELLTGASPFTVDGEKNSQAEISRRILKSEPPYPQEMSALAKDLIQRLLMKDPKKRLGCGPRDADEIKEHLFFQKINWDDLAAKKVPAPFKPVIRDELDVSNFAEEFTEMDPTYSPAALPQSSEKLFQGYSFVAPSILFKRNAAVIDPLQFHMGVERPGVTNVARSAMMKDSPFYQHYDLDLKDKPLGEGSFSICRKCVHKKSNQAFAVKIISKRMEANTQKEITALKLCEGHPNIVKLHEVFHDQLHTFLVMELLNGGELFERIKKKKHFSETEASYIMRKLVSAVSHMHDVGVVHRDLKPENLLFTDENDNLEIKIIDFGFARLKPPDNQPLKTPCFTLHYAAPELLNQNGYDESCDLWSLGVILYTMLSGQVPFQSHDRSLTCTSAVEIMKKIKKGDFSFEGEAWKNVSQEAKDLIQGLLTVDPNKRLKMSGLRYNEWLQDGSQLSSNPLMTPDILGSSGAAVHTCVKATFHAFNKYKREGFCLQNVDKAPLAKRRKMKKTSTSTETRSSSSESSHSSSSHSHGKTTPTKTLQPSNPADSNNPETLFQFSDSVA
AKT3, sequence (Q9Y243 whole entry): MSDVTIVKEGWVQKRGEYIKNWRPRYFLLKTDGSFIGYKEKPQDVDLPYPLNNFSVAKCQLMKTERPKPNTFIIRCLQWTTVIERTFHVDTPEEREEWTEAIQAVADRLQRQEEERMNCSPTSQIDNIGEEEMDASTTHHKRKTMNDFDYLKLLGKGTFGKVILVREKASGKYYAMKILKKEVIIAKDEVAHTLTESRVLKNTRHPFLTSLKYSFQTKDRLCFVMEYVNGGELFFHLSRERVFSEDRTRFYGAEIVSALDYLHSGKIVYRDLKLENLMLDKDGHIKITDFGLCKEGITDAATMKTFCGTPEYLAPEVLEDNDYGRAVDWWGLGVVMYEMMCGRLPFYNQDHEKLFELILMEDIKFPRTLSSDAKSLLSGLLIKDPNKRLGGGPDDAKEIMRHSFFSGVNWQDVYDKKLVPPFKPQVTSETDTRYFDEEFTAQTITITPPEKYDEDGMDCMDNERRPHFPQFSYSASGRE
SRPK1, sequence (Q96SB4 whole entry): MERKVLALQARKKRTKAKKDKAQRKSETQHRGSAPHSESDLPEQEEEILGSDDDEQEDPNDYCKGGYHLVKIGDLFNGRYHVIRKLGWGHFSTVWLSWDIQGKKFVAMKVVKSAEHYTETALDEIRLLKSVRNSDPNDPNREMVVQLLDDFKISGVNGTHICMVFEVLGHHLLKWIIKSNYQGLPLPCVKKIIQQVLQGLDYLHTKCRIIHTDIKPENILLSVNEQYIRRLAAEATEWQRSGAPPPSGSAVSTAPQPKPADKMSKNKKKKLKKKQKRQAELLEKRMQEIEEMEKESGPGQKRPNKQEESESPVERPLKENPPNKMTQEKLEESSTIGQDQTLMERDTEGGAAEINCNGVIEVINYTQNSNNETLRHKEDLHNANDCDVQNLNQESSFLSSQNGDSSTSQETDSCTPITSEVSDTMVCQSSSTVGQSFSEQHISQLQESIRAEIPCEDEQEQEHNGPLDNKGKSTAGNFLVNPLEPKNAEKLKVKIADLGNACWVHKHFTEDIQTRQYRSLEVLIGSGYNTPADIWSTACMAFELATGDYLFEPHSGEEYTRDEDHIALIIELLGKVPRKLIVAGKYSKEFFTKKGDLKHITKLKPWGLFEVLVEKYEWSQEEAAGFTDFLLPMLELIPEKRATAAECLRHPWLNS
p38a, sequence (Q16539 whole entry): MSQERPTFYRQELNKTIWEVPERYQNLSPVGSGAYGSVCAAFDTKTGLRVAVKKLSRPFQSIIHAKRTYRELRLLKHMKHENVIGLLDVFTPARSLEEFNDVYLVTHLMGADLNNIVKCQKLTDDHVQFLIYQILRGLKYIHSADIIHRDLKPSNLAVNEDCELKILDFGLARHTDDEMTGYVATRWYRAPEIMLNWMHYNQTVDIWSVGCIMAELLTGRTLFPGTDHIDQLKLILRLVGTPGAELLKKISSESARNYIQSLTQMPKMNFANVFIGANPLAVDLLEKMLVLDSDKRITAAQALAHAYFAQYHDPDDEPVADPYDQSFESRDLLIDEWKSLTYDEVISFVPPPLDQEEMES

As to `CNc1ncc2cc(-c3cc(C(F)(F)F)ccc3Cl)c(=O)n(CCCCN)c2n1` [compound 9, 8-(4-Aminobutyl)-6-(2-chloro-5-(trifluoromethyl)phenyl)-2-(methylamino)pyrido[2,3-d]pyrimidin-7(8H)-one], the ΔTm at 10 µM at AKT3 (read-out: dTm 9) was determined as 0 °C; on BMX (read-out: dTm 9), 3.2 °C; at CHK2 (read-out: dTm 9) it was 0.5 °C; on EpHA5 (read-out: dTm 9), 2.6 °C; at Erk7 (read-out: dTm 9) it was 0.1 °C; on MAP2K6 (read-out: dTm 9) it was 0.8 °C. Moreover, the ΔTm at 10 µM at MSK1b (read-out: dTm 9) was 0.9 °C; on NEK2 (read-out: dTm 9) it was 1.3 °C; at PIM3 (read-out: dTm 9), 0.4 °C; on SRPK1 (read-out: dTm 9) it was 0.1 °C; on TAF1 (read-out: dTm 9) it was -0.7 °C; at p38a (read-out: dTm 9), 4.2 °C.
For the molecule `CNc1ncc2cc(-c3cc(Cl)ccc3Cl)c(=O)n(CCCCN)c2n1` [compound 8, 8-(4-Aminobutyl)-6-(2,5-dichlorophenyl)-2-(methylamino)pyrido[2,3-d]pyrimidin-7(8H)-one], the ΔTm at 10 µM on AKT3 (read-out: dTm 8) was determined as 0 °C; at BMX (read-out: dTm 8), 4 °C; on CHK2 (read-out: dTm 8), 0.4 °C; at EpHA5 (read-out: dTm 8), 5.4 °C; at Erk7 (read-out: dTm 8), 0.3 °C; on MAP2K6 (read-out: dTm 8), 1.3 °C. Further, the ΔTm at 10 µM on MSK1b (read-out: dTm 8) was 2.1 °C; at NEK2 (read-out: dTm 8), 1.9 °C; at PIM3 (read-out: dTm 8) it was 1 °C; at SRPK1 (read-out: dTm 8), 0.3 °C; at TAF1 (read-out: dTm 8), -0.7 °C; at p38a (read-out: dTm 8), 6 °C.
On to `CNc1ncc2cc(-c3cc(Br)ccc3Br)c(=O)n(CCCCN)c2n1` [compound 11, 8-(4-Aminobutyl)-6-(2,5-dibromophenyl)-2-(methylamino)pyrido[2,3-d]pyrimidin-7(8H)-one], for which the ΔTm at 10 µM at AKT3 (read-out: dTm 11) was -0.1 °C; at BMX (read-out: dTm 11), 4.2 °C; on CHK2 (read-out: dTm 11) it was 0.4 °C; on EpHA5 (read-out: dTm 11), 4.7 °C; at Erk7 (read-out: dTm 11), 0.3 °C; at MAP2K6 (read-out: dTm 11) it was 1.6 °C. In addition, the ΔTm at 10 µM was 2 °C on MSK1b (read-out: dTm 11); 1.7 °C on NEK2 (read-out: dTm 11); 0.9 °C at PIM3 (read-out: dTm 11); 0.2 °C on SRPK1 (read-out: dTm 11); -0.8 °C on TAF1 (read-out: dTm 11); 6.4 °C on p38a (read-out: dTm 11).
Consider `CNc1ncc2cc(-c3cc(F)c(-c4cccc(C)n4)cc3F)c(=O)n(CCCCN)c2n1` [compound 12, 8-(4-Aminobutyl)-6-(2,5-difluoro-4-(6-methylpyridin-2-yl)phenyl)-2-(methylamino)pyrido[2,3-d]pyrimidin-7(8H)-one], for which the ΔTm at 10 µM at AKT3 (read-out: dTm 12) is 1.2 °C; at BMX (read-out: dTm 12), 3.6 °C; at CHK2 (read-out: dTm 12) it was 3.3 °C; at EpHA5 (read-out: dTm 12), 3.2 °C; at Erk7 (read-out: dTm 12) it was -1.3 °C; at MAP2K6 (read-out: dTm 12), 3.8 °C. In addition, the ΔTm at 10 µM was 1 °C at MSK1b (read-out: dTm 12); 7.2 °C at NEK2 (read-out: dTm 12); -1.2 °C on PIM3 (read-out: dTm 12); 0 °C at SRPK1 (read-out: dTm 12); 0.4 °C on TAF1 (read-out: dTm 12); 0.4 °C on p38a (read-out: dTm 12).
With `CNc1ncc2cc(-c3cc(Cl)ccc3Br)c(=O)n(CCCCN)c2n1` [compound 10, 8-(4-Aminobutyl)-6-(2-bromo-5-chlorophenyl)-2-(methylamino)pyrido[2,3-d]pyrimidin-7(8H)-one], the ΔTm at 10 µM on AKT3 (read-out: dTm 10) is -0.1 °C; at BMX (read-out: dTm 10), 3.9 °C; on CHK2 (read-out: dTm 10), 0.2 °C; on EpHA5 (read-out: dTm 10), 5.5 °C; at Erk7 (read-out: dTm 10), 0.3 °C; on MAP2K6 (read-out: dTm 10) it was 1.5 °C. Also, the ΔTm at 10 µM on MSK1b (read-out: dTm 10) was 2.1 °C; on NEK2 (read-out: dTm 10), 2.1 °C; at PIM3 (read-out: dTm 10) it was 0.8 °C; at SRPK1 (read-out: dTm 10), 0.2 °C; at TAF1 (read-out: dTm 10) it was -0.8 °C; on p38a (read-out: dTm 10), 6.1 °C.
